pIC50: −log10 of the molar value. One block for each compound: values may come before it. Activity calls are given as the source filed them. The calls are words filed in the database; no cut-off is given here.
Assays:
[1] = tested on: U-937; experiment: Downregulation of Bcl-2 expression in human U-937 cells incubated for 48 hrs by Western blot analysis; assay type: functional, cell-based
[2] = tested on: U-937; experiment: Induction of apoptosis in human U-937 cells assessed as viable cells at 2.5 uM incubated for 48 hrs by Annexin V-FITC/PI staining based flow cytometry (reference value: 93.30 %); assay type: functional; settings: read-out: Activity
[3] = tested on: SK-OV-3; experiment: Antiproliferative activity against human SK-OV-3 cells assessed as inhibition of cell growth incubated for 72 hrs by MTT assay; assay type: functional, cell-based; settings: SK-OV-3, 72 h
[4] = tested on: U-937; experiment: Induction of apoptosis in human U-937 cells assessed as viable cells at 1 uM incubated for 48 hrs by Annexin V-FITC/PI staining based flow cytometry (reference value: 93.30 %); assay type: functional; settings: read-out: Activity
[5] = tested on: U-937; experiment: Induction of apoptosis in human U-937 cells assessed as late apoptotic cells at 1 uM incubated for 48 hrs by Annexin V-FITC/PI staining based flow cytometry (reference value: 1.96 %); assay type: functional
[6] = tested on: U-937; experiment: Induction of apoptosis in human U-937 cells assessed as necrotic cells at 0.5 uM incubated for 48 hrs by Annexin V-FITC/PI staining based flow cytometry (reference value: 2.03 %); assay type: functional
[7] = tested on: THP-1; experiment: Antiproliferative activity against human THP-1 cells assessed as inhibition of cell growth incubated for 72 hrs by MTT assay; assay type: functional, cell-based; settings: THP-1, 72 h
[8] = tested on: U-937; experiment: Induction of apoptosis in human U-937 cells assessed as late apoptotic cells at 2.5 uM incubated for 48 hrs by Annexin V-FITC/PI staining based flow cytometry (reference value: 1.96 %); assay type: functional
[9] = tested on: U-937; experiment: Induction of apoptosis in human U-937 cells assessed as necrotic cells at 2.5 uM incubated for 48 hrs by Annexin V-FITC/PI staining based flow cytometry (reference value: 2.03 %); assay type: functional
[10] = tested on: U-937; experiment: Downregulation of Bcl-XL expression in human U-937 cells incubated for 48 hrs by Western blot analysis; assay type: functional, cell-based; settings: dose 1-5 µM
[11] = tested on: U-937; experiment: Antiproliferative activity against human U-937 cells assessed as inhibition of cell growth incubated for 72 hrs by MTT assay; assay type: functional, cell-based; settings: U-937, 72 h
[12] = tested on: U-937; experiment: Induction of apoptosis in human U-937 cells assessed as change in mitochondrial membrane potential at 2.5 uM incubated for 48 hrs by JC-1 staining based flow cytometry (reference value: 2.20 %); assay type: functional
[13] = tested on: U-937; experiment: Upregulation of p21 expression in human U-937 cells incubated for 48 hrs by Western blot analysis; assay type: functional, cell-based
[14] = tested on: U-937; experiment: Downregulation of XIAP expression in human U-937 cells incubated for 48 hrs by Western blot analysis; assay type: functional, cell-based
[15] = tested on: U-937; experiment: Induction of apoptosis in human U-937 cells assessed as change in mitochondrial membrane potential at 1 uM incubated for 48 hrs by JC-1 staining based flow cytometry (reference value: 2.20 %); assay type: functional
[16] = tested on: U-937; experiment: Downregulation of c-Myc expression in human U-937 cells incubated for 48 hrs by Western blot analysis; assay type: functional, cell-based; settings: dose 1-5 µM
[17] = target: Signal transducer and activator of transcription 3 (Homo sapiens) (UniProt P40763); experiment: Inhibition of STAT3 phosphorylation in human U-937 cells at 1 to 5 uM incubated for 48 hrs by Western blot analysis; assay type: cell-based; settings: dose 1-5 µM
[18] = tested on: U-937; experiment: Induction of apoptosis in human U-937 cells assessed as early apoptotic cells at 2.5 uM incubated for 48 hrs by Annexin V-FITC/PI staining based flow cytometry (reference value: 2.72 %); assay type: functional
[19] = tested on: U-937; experiment: Induction of apoptosis in human U-937 cells assessed as late apoptotic cells at 0.5 uM incubated for 48 hrs by Annexin V-FITC/PI staining based flow cytometry (reference value: 1.96 %); assay type: functional
[20] = tested on: U-937; experiment: Induction of apoptosis in human U-937 cells assessed as early apoptotic cells at 1 uM incubated for 48 hrs by Annexin V-FITC/PI staining based flow cytometry (reference value: 2.72 %); assay type: functional
[21] = tested on: U-937; experiment: Induction of apoptosis in human U-937 cells assessed as necrotic cells at 1 uM incubated for 48 hrs by Annexin V-FITC/PI staining based flow cytometry (reference value: 2.03 %); assay type: functional
[22] = tested on: U-937; experiment: Induction of apoptosis in human U-937 cells assessed as viable cells at 0.5 uM incubated for 48 hrs by Annexin V-FITC/PI staining based flow cytometry (reference value: 93.30 %); assay type: functional; settings: read-out: Activity
[23] = tested on: U-937; experiment: Downregulation of YAP1 expression in human U-937 cells incubated for 48 hrs by Western blot analysis; assay type: functional, cell-based; settings: dose 1-5 µM
[24] = tested on: U-937; experiment: Induction of apoptosis in human U-937 cells assessed as early apoptotic cells at 0.5 uM incubated for 48 hrs by Annexin V-FITC/PI staining based flow cytometry (reference value: 2.72 %); assay type: functional
[25] = Antiproliferative activity against human SK-OV-3/Taxol cells assessed as inhibition of cell growth incubated for 72 hrs by MTT assay; assay type: functional, cell-based; settings: SK-OV-3, 72 h
[26] = tested on: KG-1; experiment: Antiproliferative activity against human KG-1 cells assessed as inhibition of cell growth incubated for 72 hrs by MTT assay; assay type: functional, cell-based; settings: KG-1, 72 h
[27] = tested on: U-937; experiment: Induction of apoptosis in human U-937 cells assessed as change in mitochondrial membrane potential at 5 uM incubated for 48 hrs by JC-1 staining based flow cytometry (reference value: 2.20 %); assay type: functional

Signal transducer and activator of transcription 3 (Homo sapiens), sequence (P40763 whole entry): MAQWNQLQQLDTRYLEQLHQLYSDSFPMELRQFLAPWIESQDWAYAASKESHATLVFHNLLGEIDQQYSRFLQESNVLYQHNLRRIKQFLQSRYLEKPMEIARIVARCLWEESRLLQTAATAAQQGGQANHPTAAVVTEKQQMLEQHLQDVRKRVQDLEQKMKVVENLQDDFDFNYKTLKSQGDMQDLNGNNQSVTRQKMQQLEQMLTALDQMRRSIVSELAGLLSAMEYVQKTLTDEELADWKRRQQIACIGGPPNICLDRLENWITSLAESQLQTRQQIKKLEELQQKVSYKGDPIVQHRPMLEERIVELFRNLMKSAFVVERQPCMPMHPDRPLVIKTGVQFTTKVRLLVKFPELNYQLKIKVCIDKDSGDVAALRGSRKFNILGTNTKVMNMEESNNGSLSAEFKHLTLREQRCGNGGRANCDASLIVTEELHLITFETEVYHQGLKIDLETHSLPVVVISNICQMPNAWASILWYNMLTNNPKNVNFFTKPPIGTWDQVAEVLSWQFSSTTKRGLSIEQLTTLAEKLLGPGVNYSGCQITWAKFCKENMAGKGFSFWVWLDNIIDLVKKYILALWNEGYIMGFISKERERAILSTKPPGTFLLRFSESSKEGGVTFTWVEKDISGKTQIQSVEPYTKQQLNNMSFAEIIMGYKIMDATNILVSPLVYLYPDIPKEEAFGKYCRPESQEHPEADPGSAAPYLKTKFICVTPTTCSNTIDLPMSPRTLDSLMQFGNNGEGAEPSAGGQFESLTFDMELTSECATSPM

pIC50 [3]: 5.33
pIC50 [7]: 6.19
pIC50 [11]: 6.74
inhibition [17]: Active
Structure (SMILES): CCc1nccnc1C(=O)/C=C/c1ccc(C#N)cc1
Activity [1]: Dose-dependent-effect
viability at 2.5 µM [2]: 74.2%
viability at 1 µM [4]: 80.3%
Activity [5]: 6.74%
Activity [6]: 2.84%
Activity [8]: 7.46%
Activity [9]: 3.82%
Activity [10]: Dose-dependent-effect
Activity [12]: 6.16%
Activity [13]: Dose-dependent-effect
Activity [14]: Dose-dependent-effect
Activity [15]: 3.69%
Activity [16]: Dose-dependent-effect
Activity [18]: 14.57%
Activity [19]: 6.11%
Activity [20]: 10.41%
Activity [21]: 2.6%
viability at 0.5 µM [22]: 82.9%
Activity [23]: Dose-dependent-effect
Activity [24]: 8.17%
pIC50 [25]: 5.27
pIC50 [26]: 5.40
Activity [27]: 14.12%

pIC50 [3]: 5.47
pIC50 [7]: 5.45
pIC50 [11]: 5.65
Structure (SMILES): CCc1nccnc1C(=O)/C=C/c1ccccc1F
pIC50 [25]: 5.44
pIC50 [26]: 5.51

pIC50 [3]: 5.79
pIC50 [7]: 5.79
pIC50 [11]: 5.80
Structure (SMILES): Cc1nccnc1C(=O)/C=C/c1cccc(Br)c1
pIC50 [25]: 5.84
pIC50 [26]: 7.10

pIC50 [3]: 4.95
pIC50 [7]: 4.84
pIC50 [11]: 5.40
Structure (SMILES): CCc1nccnc1C(=O)/C=C/c1cccc(Cl)c1Cl
pIC50 [25]: 4.95
pIC50 [26]: 4.98

pIC50 [3]: 5.49
pIC50 [7]: 5.84
pIC50 [11]: 6.12
Structure (SMILES): Cc1nccnc1C(=O)/C=C/c1ccc(S(C)(=O)=O)cc1
pIC50 [25]: 5.48
pIC50 [26]: 5.36

pIC50 [3]: 5.29
pIC50 [7]: 5.75
pIC50 [11]: 5.27
Structure (SMILES): Cc1nccnc1C(=O)/C=C/c1ccccc1
pIC50 [25]: 5.30
pIC50 [26]: 5.79

pIC50 [3]: < 4.30
pIC50 [7]: 4.53
pIC50 [11]: 4.52
Structure (SMILES): CCc1nccnc1C(=O)/C=C/c1ccc(N(CC)CC)cc1
pIC50 [25]: < 4.30
pIC50 [26]: 4.61

pIC50 [3]: 4.87
pIC50 [7]: 4.96
pIC50 [11]: 5.09
Structure (SMILES): O=C(/C=C/c1cccc(Br)c1)c1cnccn1
pIC50 [25]: 4.77
pIC50 [26]: 4.63

pIC50 [3]: < 4.30
pIC50 [7]: 4.69
pIC50 [11]: 4.84
Structure (SMILES): O=C(/C=C/c1ccc2c(c1)OC(F)(F)O2)c1cnccn1
pIC50 [25]: < 4.30
pIC50 [26]: 4.76

pIC50 [3]: 5.78
pIC50 [7]: 5.12
pIC50 [11]: 5.62
Structure (SMILES): Cc1nccnc1C(=O)/C=C/c1ccc(-c2ccccc2)cc1
pIC50 [25]: 5.78
pIC50 [26]: 5.49

pIC50 [3]: 5.37
pIC50 [7]: 5.50
pIC50 [11]: 5.47
Structure (SMILES): CCc1nccnc1C(=O)/C=C/c1cc2c(cc1[N+](=O)[O-])OCO2
pIC50 [25]: 5.32
pIC50 [26]: 5.03

pIC50 [3]: 5.47
pIC50 [7]: 5.86
pIC50 [11]: 5.71
Structure (SMILES): CCc1nccnc1C(=O)/C=C/c1ccc(S(C)(=O)=O)cc1
pIC50 [25]: 5.21
pIC50 [26]: 5.44

pIC50 [3]: 5.33
pIC50 [7]: 5.22
pIC50 [11]: 5.41
Structure (SMILES): CSc1ccc(/C=C/C(=O)c2nccnc2C)cc1
pIC50 [25]: 5.17
pIC50 [26]: 5.16

pIC50 [3]: 5.37
pIC50 [7]: 5.21
pIC50 [11]: 6.18
Structure (SMILES): CCc1nccnc1C(=O)/C=C/c1cccc(F)c1
pIC50 [25]: 5.20
pIC50 [26]: 5.46

pIC50 [3]: < 4.30
pIC50 [7]: 5.18
pIC50 [11]: 5.32
Structure (SMILES): COc1ccc(/C=C/C(=O)c2cnccn2)cc1OC
pIC50 [25]: < 4.30
pIC50 [26]: 5.32

pIC50 [3]: < 4.30
pIC50 [7]: 4.91
pIC50 [11]: 4.72
Structure (SMILES): O=C(/C=C/c1cccc(Cl)c1Cl)c1cnccn1
pIC50 [25]: < 4.30
pIC50 [26]: 4.26

pIC50 [3]: 4.99
pIC50 [7]: 4.70
pIC50 [11]: 4.64
Structure (SMILES): Cc1ccc(/C=C/C(=O)c2cnccn2)cc1
pIC50 [25]: 4.78
pIC50 [26]: 4.94

pIC50 [3]: 5.60
pIC50 [7]: 6.01
pIC50 [11]: 6.21
Structure (SMILES): CCc1nccnc1C(=O)/C=C/c1cccc(C#N)c1
pIC50 [25]: 5.54
pIC50 [26]: 5.41

pIC50 [3]: 5.33
pIC50 [7]: 5.72
pIC50 [11]: 5.53
Structure (SMILES): Cc1nccnc1C(=O)/C=C/c1cc2ccccc2o1
pIC50 [25]: 5.76
pIC50 [26]: 5.48

pIC50 [3]: 5.34
pIC50 [7]: 4.62
pIC50 [11]: 5.70
Structure (SMILES): CCc1nccnc1C(=O)/C=C/c1ccccc1
pIC50 [25]: 5.27
pIC50 [26]: 5.43

pIC50 [3]: 5.47
pIC50 [7]: 5.09
pIC50 [11]: 5.19
Structure (SMILES): CCN(CC)c1ccc(/C=C/C(=O)c2nccnc2C)cc1
pIC50 [25]: 5.08
pIC50 [26]: 5.15
